The experiment relates to BDF1 mice, B16 melanoma s.c., survival/tumor T/C. Kind of experiment: NCI In Vivo Anticancer Drug Screen. Data for tumor model B16 Melanoma (subcutaneous) in B6D2F1 (BDF1) mice. How it is done: The antitumor activity of compounds was measured in mice bearing transplantable tumors. Survival or tumor size were measured and the results are expressed as the measurement made in the treated group (T) divided by the measurement made in the vehicle treated control group (C). The tumor model used in this assay is B16 Melanoma (subcutaneous) in B6D2F1 (BDF1) mice

The mark [1] stands for this setting: endpoint: median survival time, dose: 40.0 mg/kg/injection, schedule: Q01DX009 (ip), vehicle: Klucel (hydroxypropylcellulose) (HPC), higher = longer survival.
[2] abbreviates: endpoint: median survival time, dose: 50.0 mg/kg/injection, schedule: Q04DX003 (ip), vehicle: saline, higher = longer survival.

Several values for one entry are separate records, joined by “and”; a condition that tells them apart may be missing. Equal values may be shown once. Results filed as inconclusive are left out.

As for `CN(Cc1cnc2nc(N)nc(N)c2n1)c1c(Cl)cc(C(=O)NC(CCC(=O)O)C(=O)O)cc1Cl` (centres undefined), the T/C was 103 % of control (endpoint: median survival time, dose: 60.0 mg/kg/injection, schedule: Q01DX009 (ip), vehicle: sodium bicarbonate, higher = longer survival); 110 % of control (endpoint: median survival time, dose: 90.0 mg/kg/injection, schedule: Q01DX009 (ip), vehicle: sodium bicarbonate, higher = longer survival); 101 % of control (endpoint: median survival time, dose: 135.0 mg/kg/injection, schedule: Q01DX009 (ip), vehicle: sodium bicarbonate, higher = longer survival); 109 % of control (endpoint: median survival time, dose: 600.0 mg/kg/injection, schedule: Q04DX003 (ip), vehicle: sodium bicarbonate, higher = longer survival); 97 % of control (endpoint: median survival time, dose: 670.0 mg/kg/injection, schedule: Q01DX001 (ip), vehicle: sodium bicarbonate, higher = longer survival); 102 % of control (endpoint: median survival time, dose: 900.0 mg/kg/injection, schedule: Q04DX003 (ip), vehicle: sodium bicarbonate, higher = longer survival). The T/C (endpoint: median survival time, dose: 1000.0 mg/kg/injection, schedule: Q01DX001 (ip), vehicle: sodium bicarbonate, higher = longer survival) was 102 % of control.
With `CSCCC(N)C(=O)O` (centres undefined), the T/C reads like this: under setting [1], 108 % of control; (endpoint: median survival time, dose: 80.0 mg/kg/injection, schedule: Q01DX009 (ip), vehicle: Klucel (hydroxypropylcellulose) (HPC), higher = longer survival) 97 % of control; (endpoint: median survival time, dose: 160.0 mg/kg/injection, schedule: Q01DX009 (ip), vehicle: Klucel (hydroxypropylcellulose) (HPC), higher = longer survival) 97 % of control; (endpoint: median survival time, dose: 320.0 mg/kg/injection, schedule: Q01DX009 (ip), vehicle: Klucel (hydroxypropylcellulose) (HPC), higher = longer survival) 122 % of control.
As for `CN(Cc1cnc2nc(N)nc(N)c2n1)c1ccc(C(=O)N[C@@H](CCC(=O)O)C(=O)O)cc1`, the T/C was 100 % of control (endpoint: median survival time, dose: 0.5 mg/kg/injection, schedule: Q01DX009 (ip), vehicle: saline with Tween-80, higher = longer survival); 100 % of control (endpoint: median survival time, dose: 1.0 mg/kg/injection, schedule: Q01DX009 (ip), vehicle: saline with Tween-80, higher = longer survival); 89 % of control (endpoint: median survival time, dose: 2.0 mg/kg/injection, schedule: Q01DX009 (ip), vehicle: saline with Tween-80, higher = longer survival); 173 % of control (endpoint: median tumor weight (est.), dose: 0.5 mg/kg/injection, schedule: Q01DX009 (ip), vehicle: saline with Tween-80, higher = larger tumour); 81 % of control (endpoint: median tumor weight (est.), dose: 1.0 mg/kg/injection, schedule: Q01DX009 (ip), vehicle: saline with Tween-80, higher = larger tumour).
Consider `CCOC(=O)C1CCC(NC(=O)N(CCCl)N=O)CC1` (centres undefined), for which the T/C is 196 % of control (endpoint: median survival time, dose: 33.0 mg/kg/injection, schedule: Q01DX001 (ip), vehicle: gum acacia, higher = longer survival) and 192 % of control (endpoint: median survival time, dose: 44.0 mg/kg/injection, schedule: Q01DX001 (ip), vehicle: gum acacia, higher = longer survival).
As to `CC(CN1CC(=O)NC(=O)C1)N1CC(=O)NC(=O)C1` (centres undefined), the T/C was 97 % of control (endpoint: median survival time, dose: 6.25 mg/kg/injection, schedule: Q04DX003 (ip), vehicle: saline, higher = longer survival); 113 % of control (endpoint: median survival time, dose: 8.0 mg/kg/injection, schedule: Q01DX009 (ip), vehicle: Klucel (hydroxypropylcellulose) (HPC), higher = longer survival); 97 % of control (endpoint: median survival time, dose: 12.5 mg/kg/injection, schedule: Q04DX003 (ip), vehicle: saline, higher = longer survival); 122 % of control (endpoint: median survival time, dose: 15.0 mg/kg/injection, schedule: Q01DX009 (ip), vehicle: saline, higher = longer survival); 118 % of control (endpoint: median survival time, dose: 16.0 mg/kg/injection, schedule: Q01DX009 (ip), vehicle: Klucel (hydroxypropylcellulose) (HPC), higher = longer survival); 102 % of control (endpoint: median survival time, dose: 25.0 mg/kg/injection, schedule: Q04DX003 (ip), vehicle: saline, higher = longer survival). In addition, the T/C (endpoint: median survival time, dose: 30.0 mg/kg/injection, schedule: Q01DX009 (ip), vehicle: saline, higher = longer survival) is 95 % of control; the T/C under setting [2] was 111 % of control; the T/C (endpoint: median survival time, dose: 60.0 mg/kg/injection, schedule: Q01DX009 (ip), vehicle: saline, higher = longer survival) is 110 % of control; the T/C (endpoint: median survival time, dose: 64.0 mg/kg/injection, schedule: Q01DX009 (ip), vehicle: Klucel (hydroxypropylcellulose) (HPC), higher = longer survival) was 119 % of control; the T/C (endpoint: median survival time, dose: 120.0 mg/kg/injection, schedule: Q01DX009 (ip), vehicle: saline, higher = longer survival) was 109 % of control; the T/C (endpoint: median survival time, dose: 200.0 mg/kg/injection, schedule: Q04DX003 (ip), vehicle: saline, higher = longer survival) is 105 % of control. Also, the T/C (endpoint: median survival time, dose: 400.0 mg/kg/injection, schedule: Q04DX003 (ip), vehicle: saline, higher = longer survival) is 120 % of control.
Take `NC(C/[N+]([O-])=N/O)C(=O)O` (centres undefined): the T/C reads like this: (endpoint: median survival time, dose: 8.75 mg/kg/injection, schedule: Q01DX010 (ip), vehicle: alkali diluted with saline, higher = longer survival) 96 % of control; (endpoint: median survival time, dose: 8.78 mg/kg/injection, schedule: Q01DX010 (ip), vehicle: alkali diluted with saline, higher = longer survival) 100 % of control; (endpoint: median survival time, dose: 13.2 mg/kg/injection, schedule: Q01DX010 (ip), vehicle: alkali diluted with saline, higher = longer survival) 152 % of control and 154 % of control; (endpoint: median survival time, dose: 29.6 mg/kg/injection, schedule: Q01DX010 (ip), vehicle: alkali diluted with saline, higher = longer survival) 93 % of control and 96 % of control; under setting [1], 103 % of control; (endpoint: median survival time, dose: 44.4 mg/kg/injection, schedule: Q01DX010 (ip), vehicle: alkali diluted with saline, higher = longer survival) 104 % of control. For the same molecule, the T/C is, setting by setting: (endpoint: median survival time, dose: 66.7 mg/kg/injection, schedule: Q01DX010 (ip), vehicle: alkali diluted with saline, higher = longer survival) 122 % of control; (endpoint: median survival time, dose: 300.0 mg/kg/injection, schedule: Q01DX001 (ip), vehicle: Klucel (hydroxypropylcellulose) (HPC), higher = longer survival) 87 % of control; (endpoint: median survival time, dose: 300.0 mg/kg/injection, schedule: Q04DX003 (ip), vehicle: Klucel (hydroxypropylcellulose) (HPC), higher = longer survival) 93 % of control; (endpoint: median survival time, dose: 500.0 mg/kg/injection, schedule: Q01DX001 (ip), vehicle: Klucel (hydroxypropylcellulose) (HPC), higher = longer survival) 97 % of control.
Turning to `CC(c1ccccc1)N1C(=O)CSC1=S` (centres undefined), the T/C (endpoint: median survival time, dose: 400.0 mg/kg/injection, schedule: Q01DX009 (ip), vehicle: Klucel (hydroxypropylcellulose) (HPC), higher = longer survival) was 89 % of control.
For the molecule `CC1OC(=O)C(C(C)C)NC(=O)C(C(C)C)OC(=O)C(C(C)C)NC(=O)C(C)OC(=O)C(C(C)C)NC(=O)C(C(C)C)OC(=O)C(C(C)C)NC(=O)C(C)OC(=O)C(C(C)C)NC(=O)C(C(C)C)OC(=O)C(C(C)C)NC1=O` (centres undefined), the T/C was 86 % of control (endpoint: median survival time, dose: 3.4 mg/kg/injection, schedule: Q01DX009 (ip), vehicle: saline with Tween-80, higher = longer survival); 86 % of control (endpoint: median survival time, dose: 5.0 mg/kg/injection, schedule: Q01DX009 (ip), vehicle: saline with Tween-80, higher = longer survival); 91 % of control (endpoint: median survival time, dose: 7.5 mg/kg/injection, schedule: Q01DX009 (ip), vehicle: saline with Tween-80, higher = longer survival); 86 % of control (endpoint: median survival time, dose: 15.0 mg/kg/injection, schedule: Q04DX003 (ip), vehicle: saline with Tween-80, higher = longer survival); 90 % of control (endpoint: median survival time, dose: 20.0 mg/kg/injection, schedule: Q04DX003 (ip), vehicle: saline with Tween-80, higher = longer survival); 86 % of control (endpoint: median survival time, dose: 30.0 mg/kg/injection, schedule: Q01DX001 (ip), vehicle: saline with Tween-80, higher = longer survival). The T/C is 91 % of control (endpoint: median survival time, dose: 30.0 mg/kg/injection, schedule: Q04DX003 (ip), vehicle: saline with Tween-80, higher = longer survival) and 97 % of control (endpoint: median survival time, dose: 45.0 mg/kg/injection, schedule: Q01DX001 (ip), vehicle: saline with Tween-80, higher = longer survival).
For `O=c1[nH]cc(F)c(=O)[nH]1`, the T/C reads like this: (endpoint: median survival time, dose: 5.0 mg/kg/injection, schedule: Q01DX009 (ip), vehicle: saline, higher = longer survival) 77 % of control; (endpoint: median survival time, dose: 8.4 mg/kg/injection, schedule: Q01DX009 (ip), vehicle: saline, higher = longer survival) 100 % of control; (endpoint: median survival time, dose: 10.0 mg/kg/injection, schedule: Q01DX009 (ip), vehicle: Klucel (hydroxypropylcellulose) (HPC), higher = longer survival) 100 % of control; (endpoint: median survival time, dose: 10.0 mg/kg/injection, schedule: Q01DX009 (ip), vehicle: saline with Tween-80, higher = longer survival) 98 % of control and 101 % of control; (endpoint: median survival time, dose: 14.0 mg/kg/injection, schedule: Q01DX009 (ip), vehicle: saline, higher = longer survival) 97 % of control; (endpoint: median survival time, dose: 20.0 mg/kg/injection, schedule: Q01DX009 (ip), vehicle: Klucel (hydroxypropylcellulose) (HPC), higher = longer survival) 100 % of control. For the same molecule, the T/C runs as follows: (endpoint: median survival time, dose: 20.0 mg/kg/injection, schedule: Q01DX009 (ip), vehicle: saline with Tween-80, higher = longer survival) 111 % of control; (endpoint: median survival time, dose: 23.0 mg/kg/injection, schedule: Q01DX009 (ip), vehicle: saline, higher = longer survival) 107 % of control; (endpoint: median survival time, dose: 23.0 mg/kg/injection, schedule: Q04DX003 (ip), vehicle: saline, higher = longer survival) 100 % of control; (endpoint: median survival time, dose: 39.0 mg/kg/injection, schedule: Q04DX003 (ip), vehicle: saline, higher = longer survival) 97 % of control; (endpoint: median survival time, dose: 40.0 mg/kg/injection, schedule: Q01DX009 (ip), vehicle: saline with Tween-80, higher = longer survival) 98 % of control and 107 % of control; under setting [2], 113 % of control. For the same molecule, the T/C was 86 % of control (endpoint: median survival time, dose: 65.0 mg/kg/injection, schedule: Q04DX003 (ip), vehicle: saline, higher = longer survival); 107 % of control (endpoint: median survival time, dose: 108.0 mg/kg/injection, schedule: Q04DX003 (ip), vehicle: saline, higher = longer survival); 97 % of control and 84 % of control (endpoint: median tumor weight (est.), dose: 10.0 mg/kg/injection, schedule: Q01DX009 (ip), vehicle: Klucel (hydroxypropylcellulose) (HPC), higher = larger tumour); 65 % of control (endpoint: median tumor weight (est.), dose: 10.0 mg/kg/injection, schedule: Q01DX009 (ip), vehicle: saline with Tween-80, higher = larger tumour); 56 % of control (endpoint: median tumor weight (est.), dose: 20.0 mg/kg/injection, schedule: Q01DX009 (ip), vehicle: saline with Tween-80, higher = larger tumour); 75 % of control (endpoint: median tumor weight (est.), dose: 40.0 mg/kg/injection, schedule: Q01DX009 (ip), vehicle: Klucel (hydroxypropylcellulose) (HPC), higher = larger tumour). Also, the T/C (endpoint: median tumor weight (est.), dose: 40.0 mg/kg/injection, schedule: Q01DX009 (ip), vehicle: saline with Tween-80, higher = larger tumour) was 39 % of control.

Values taken from PubChem BioAssay AID194 (DTP/NCI, 2004).
